In patent publication US20030170730A1, “Assay method, peptides and reagent kits for testing mrp-specific inhibitors” (priority 2000, published 2003):

Legend:
MRP1-MDR1 chimeras = format: biochemical, human; conditions: pretreatment with 1 mM
Protocol: (§1) The filters were washed twice with 0.5 ml of cold transport buffer, and filter-bound radioactivity was measured in scintillation fluid (Optifluor, Packard). ATP-dependent transport was calculated by subtracting the activity values obtained with AMP from those in the presence of ATP.
Covalent photoaffinty labeling of the proteins was performed with Mg-8-azido-[α-^32P)-ATP in the presence of vanadate as a trapping agent (set Materials and Methods).

MRP1 variants = MRP1 variants (Homo sapiens, UniProt P33527); experiment: Vanadate-dependent nucleotide trapping by MRP1 variants in Sf9 membranes; conditions: pretreatment with 1 mM
MRP1 = MRP1 (Homo sapiens, UniProt P33527); experiment: ATP-dependent tracer (LTC4, NEM-GS) uptake in Sf9 membrane vesicles containing MRP1; conditions: 37° C.
Chain of MRP1 (P33527 whole entry): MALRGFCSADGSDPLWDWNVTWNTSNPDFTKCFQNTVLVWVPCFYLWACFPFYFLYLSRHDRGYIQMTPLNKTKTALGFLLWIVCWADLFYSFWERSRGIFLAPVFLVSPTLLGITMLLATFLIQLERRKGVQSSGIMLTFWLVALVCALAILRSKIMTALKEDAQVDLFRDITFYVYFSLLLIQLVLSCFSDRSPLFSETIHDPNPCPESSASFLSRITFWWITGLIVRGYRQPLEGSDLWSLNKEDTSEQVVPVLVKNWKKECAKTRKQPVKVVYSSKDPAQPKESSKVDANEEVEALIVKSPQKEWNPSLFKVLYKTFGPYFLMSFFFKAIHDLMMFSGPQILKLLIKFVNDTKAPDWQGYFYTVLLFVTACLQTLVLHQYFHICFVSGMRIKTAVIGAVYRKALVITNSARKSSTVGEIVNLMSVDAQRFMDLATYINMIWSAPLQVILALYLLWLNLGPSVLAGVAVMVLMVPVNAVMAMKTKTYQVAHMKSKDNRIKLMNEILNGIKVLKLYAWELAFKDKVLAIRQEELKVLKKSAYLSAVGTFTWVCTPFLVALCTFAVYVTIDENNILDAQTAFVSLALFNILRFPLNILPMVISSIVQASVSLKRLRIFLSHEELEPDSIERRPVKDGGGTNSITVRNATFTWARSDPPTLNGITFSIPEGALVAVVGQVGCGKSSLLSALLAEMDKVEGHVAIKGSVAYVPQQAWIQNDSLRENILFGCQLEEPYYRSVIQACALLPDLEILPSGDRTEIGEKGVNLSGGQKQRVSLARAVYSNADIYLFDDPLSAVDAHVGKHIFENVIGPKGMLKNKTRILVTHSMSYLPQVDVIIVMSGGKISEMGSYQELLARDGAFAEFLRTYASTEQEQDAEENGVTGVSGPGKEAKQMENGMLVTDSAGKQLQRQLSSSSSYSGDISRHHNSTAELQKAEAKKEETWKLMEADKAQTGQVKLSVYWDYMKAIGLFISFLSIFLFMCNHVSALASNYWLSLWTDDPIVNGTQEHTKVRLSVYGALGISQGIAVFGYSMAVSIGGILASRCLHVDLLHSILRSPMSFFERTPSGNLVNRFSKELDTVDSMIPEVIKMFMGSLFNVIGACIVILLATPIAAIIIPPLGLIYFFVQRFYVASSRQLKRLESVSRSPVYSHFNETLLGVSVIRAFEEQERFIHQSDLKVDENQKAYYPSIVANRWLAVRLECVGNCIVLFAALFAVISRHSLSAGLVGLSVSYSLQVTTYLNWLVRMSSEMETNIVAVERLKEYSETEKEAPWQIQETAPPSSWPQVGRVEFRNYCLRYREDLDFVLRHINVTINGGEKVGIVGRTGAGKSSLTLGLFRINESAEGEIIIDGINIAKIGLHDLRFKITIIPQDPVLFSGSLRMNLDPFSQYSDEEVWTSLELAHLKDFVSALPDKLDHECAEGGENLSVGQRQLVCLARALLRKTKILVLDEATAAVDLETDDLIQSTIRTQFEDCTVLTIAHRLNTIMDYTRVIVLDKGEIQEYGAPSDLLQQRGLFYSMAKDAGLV
Protocol: as §1

co-expressed ΔMRP1+L0 = co-expressed ΔMRP1+L0 (Homo sapiens, UniProt P33527); experiment: ATP-dependent tracer (LTC4, NEM-GS) uptake in Sf9 membrane vesicles containing co-expressed ΔMRP1 and L0; conditions: read-out: Km for transport of NEM-GS
Chain of co-expressed ΔMRP1+L0 (P33527 281-1531, stated change not applied): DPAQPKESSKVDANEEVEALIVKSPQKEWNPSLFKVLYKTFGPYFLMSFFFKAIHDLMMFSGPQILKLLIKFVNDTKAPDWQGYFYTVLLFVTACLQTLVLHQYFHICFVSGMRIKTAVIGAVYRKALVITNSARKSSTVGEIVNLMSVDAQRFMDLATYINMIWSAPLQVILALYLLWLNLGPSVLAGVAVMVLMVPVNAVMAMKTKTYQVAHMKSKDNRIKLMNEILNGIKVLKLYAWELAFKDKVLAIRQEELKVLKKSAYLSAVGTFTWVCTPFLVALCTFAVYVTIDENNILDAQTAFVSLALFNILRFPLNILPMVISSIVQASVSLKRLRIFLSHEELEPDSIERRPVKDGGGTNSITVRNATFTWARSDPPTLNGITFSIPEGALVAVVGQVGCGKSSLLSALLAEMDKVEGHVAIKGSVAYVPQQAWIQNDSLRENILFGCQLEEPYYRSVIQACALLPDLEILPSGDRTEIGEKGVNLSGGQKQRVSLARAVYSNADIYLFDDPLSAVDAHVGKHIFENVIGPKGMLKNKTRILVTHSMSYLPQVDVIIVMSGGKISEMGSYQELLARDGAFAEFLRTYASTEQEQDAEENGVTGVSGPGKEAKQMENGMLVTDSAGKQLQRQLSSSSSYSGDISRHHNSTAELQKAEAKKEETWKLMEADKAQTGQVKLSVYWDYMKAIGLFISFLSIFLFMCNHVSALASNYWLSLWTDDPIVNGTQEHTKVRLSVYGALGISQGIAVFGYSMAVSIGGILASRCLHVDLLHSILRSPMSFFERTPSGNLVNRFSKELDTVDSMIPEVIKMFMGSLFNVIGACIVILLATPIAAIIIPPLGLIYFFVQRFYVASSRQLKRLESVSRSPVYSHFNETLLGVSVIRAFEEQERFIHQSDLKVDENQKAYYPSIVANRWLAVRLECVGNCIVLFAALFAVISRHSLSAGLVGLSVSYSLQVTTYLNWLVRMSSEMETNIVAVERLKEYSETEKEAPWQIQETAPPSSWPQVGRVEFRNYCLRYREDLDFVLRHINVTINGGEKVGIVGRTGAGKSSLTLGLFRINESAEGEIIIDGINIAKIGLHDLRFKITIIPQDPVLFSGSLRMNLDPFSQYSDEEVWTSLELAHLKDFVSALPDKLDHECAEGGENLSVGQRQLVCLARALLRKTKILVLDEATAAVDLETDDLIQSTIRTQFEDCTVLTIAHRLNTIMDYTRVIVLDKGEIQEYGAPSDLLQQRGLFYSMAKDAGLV
Chain of co-expressed ΔMRP1+L0 (P33527 204-281, stated change not applied): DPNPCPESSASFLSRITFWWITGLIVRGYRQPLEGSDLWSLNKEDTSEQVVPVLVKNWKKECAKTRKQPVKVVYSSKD
Protocol: as §1

[1] = tested on: murine and human cells expressing MRP; conditions: cited from earlier work

Chain of MRP1 variants (P33527 281-1531): as the sequence (P33527 281-1531, stated change not applied) above
Chain of MRP1 variants (P33527 with tags, fused parts or gaps): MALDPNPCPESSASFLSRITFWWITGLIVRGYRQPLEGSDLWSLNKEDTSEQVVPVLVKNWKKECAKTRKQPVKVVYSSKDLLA

In the case of `CCN1C(=O)C=CC1=O` [N-ethylmaleimide], the “inhibition of nucleotide trapping” value (MRP1-MDR1 chimeras) is reported as “full inhibition” and the “inhibition of nucleotide trapping” value (MRP1 variants) is reported as “full inhibition”.

For `CCN1C(=O)CC(SC[C@H](NC(=O)CC[C@H](N)C(=O)O)C(=O)NCC(=O)O)C1=O` (stereo partly drawn) [NEM-GS], the “initial rate of ATP-dependent NEM-GS transport” value (MRP1; 50 μM NEM-GS, MRP1 containing membranes) was “about 250 pmol mg^−1”, the Km (MRP1; read-out: Km for transport of NEM-GS, wild-type MRP1, Sf9 membrane vesicles) was 150 µM and the Km (co-expressed ΔMRP1+L0) was roughly 400 µM.

In the case of `COc1ccc2c(c1)c(CC(=O)O)c(C)n2C(=O)c1ccc(Cl)cc1` [indomethacine], the “efflux of fluorescent dye BCECF” value [1] is listed as “effectively inhibited”.
